Reference: article PMC2924314, “Peptides derived from the HIV-1 integrase promote HIV-1 infection and multi-integration of viral cDNA in LEDGF/p75-knockdown cells” (Virology Journal, 2010)
Where no end group is shown, it is not given here.

Legend:
[1] = target: T1, LEDGF/p75 (Homo sapiens, UniProt O75475); assay: ELISA binding of peptides to LEDGF/p75; settings: apparent Kd according to ELISA using LEDGF and BSA alone as control; peptide-coated plates, room temperature, OD 490 nm, duplicate
T1 construct: histidine tag; made in house
Method: Expression and purification of the histidine-tagged IN and LEDGF/p75 expression vectors, were a generous gift from Prof. Engelman, Dana-Farber Cancer Institute and Division of AIDS, Harvard Medical School, Boston, MA, USA), were performed essentially as described previously.
Protein-peptide, protein-protein and protein-DNA binding was estimated using an ELISA-based binding assay exactly as described previously. Briefly, Maxisorp plates (Nunc) were incubated at room temperature for 2 h with […] of 10 μg/ml synthetic peptide/recombinant proteins in carbonate buffer. After incubation, the solution was removed, the plates were washed three times with PBS, and 200 μl of 10% BSA (Sigma) in PBS (w/v) was added and the plates were further incubated for 2 h at room temperature. After rewashing with PBS, the tested BSA-biotinilated (Bb) peptide or protein (alone or biotinilated) was added for a further 1-h incubation at room temperature. Following three washes with PBS, the concentration of bound molecules was estimated following the addition of streptavidin-horseradish peroxidase (HRP) conjugate (Sigma), as described previously. The enzymatic activity of HRP was estimated by monitoring the product's optical density (OD) at 490 nm using an ELISA plate reader (Tecan Sunrise, Männedorf, Switzerland). Each measurement was performed in duplicate. […]

[2] = ref [25]; cited from earlier work
From the text: Following integration of the viral cDNA, several viral proteins are expressed, among them Rev. After its nuclear import the Rev protein is involved in nuclear export of unspliced and partially spliced viral RNA molecules. Thus, similar to IN, the presence the Rev protein is essential for completion of the HIV-1 life cycle. In addition to its expression from integrated viral DNA, Rev can be expressed from unintegrated DNA molecules and thus appear at an early stage in virus-infected cells. Recently, we have shown that early expressed Rev can interact with IN in ...

T1 sequence (O75475 whole entry): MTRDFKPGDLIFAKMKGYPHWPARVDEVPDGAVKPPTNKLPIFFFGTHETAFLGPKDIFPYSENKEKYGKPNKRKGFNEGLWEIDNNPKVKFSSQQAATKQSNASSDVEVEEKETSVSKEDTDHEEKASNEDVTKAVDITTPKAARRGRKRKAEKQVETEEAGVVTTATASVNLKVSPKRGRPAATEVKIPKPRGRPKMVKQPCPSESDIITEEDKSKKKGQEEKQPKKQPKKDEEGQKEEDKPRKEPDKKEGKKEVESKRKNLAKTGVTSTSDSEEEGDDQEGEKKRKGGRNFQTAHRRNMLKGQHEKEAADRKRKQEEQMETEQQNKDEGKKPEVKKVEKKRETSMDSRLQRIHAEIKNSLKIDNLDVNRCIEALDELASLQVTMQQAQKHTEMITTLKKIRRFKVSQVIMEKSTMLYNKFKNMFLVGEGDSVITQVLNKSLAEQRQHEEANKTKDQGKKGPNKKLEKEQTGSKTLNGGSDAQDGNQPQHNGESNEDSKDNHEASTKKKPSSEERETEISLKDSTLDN

Sequence: WTAVQMAVFIHNFKRK [INS]
- Kd [1]: 2200 ± 700 nM
- cell permeability (result in words) [2]: cell-permeable
